Tests used:
[1] = target: T1, angiotensin II AT1 receptor (Oryctolagus cuniculus, UniProt P34976); assay: Ex vivo agonist/antagonist activity on isolated rabbit thoracic aorta rings; settings: 0.3, 3 and 30 μM; for agonist activity (contraction): non-treated rabbit thoracic aorta; for antagonist activity (inhibition of contractile response to angiotensin II): rabbit thoracic aorta previously exposed to angiotensin II 0.003 μM
T1 construct: tissue CEREP; host or cells: rabbit thoracic aorta rings
T1 sequence (P34976 1-359): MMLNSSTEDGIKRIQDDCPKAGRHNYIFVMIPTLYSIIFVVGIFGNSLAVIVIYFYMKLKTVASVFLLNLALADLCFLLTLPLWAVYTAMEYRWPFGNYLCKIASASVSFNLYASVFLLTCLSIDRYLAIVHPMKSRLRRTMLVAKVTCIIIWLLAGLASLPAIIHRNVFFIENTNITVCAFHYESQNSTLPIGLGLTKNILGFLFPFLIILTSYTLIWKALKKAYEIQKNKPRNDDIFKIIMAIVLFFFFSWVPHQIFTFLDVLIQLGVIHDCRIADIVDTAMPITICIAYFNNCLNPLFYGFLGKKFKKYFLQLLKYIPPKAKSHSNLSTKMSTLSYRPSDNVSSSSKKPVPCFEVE
Method: This activity is either agonist or antagonist and was evaluated ex vivo on isolated organs. Agonist activity corresponds to tissue contraction. Antagonist activity corresponds to tissue dilatation.
The ex vivo test was performed at the CEREP (Celle L'Evescault, France (86)) following a protocol based on Pendleton et al. (Pendleton R G et al.,1989). Rabbit thoracic aorta rings with intact endothelium were suspended in baths for organs containing an oxygenated physiologic saline solution (95% O2 and 5% CO2) and preheated (37° C.) having the following composition (mM): NaCl 118.0, KCl 4.7, MgSO4 1.2, CaCl2 2.5, KH2PO4 1.2, NaHCO3 25.0, and glucose 11.0 (pH 7.4).
Benextramine (1 μM), propranolol (1 μM), pyrilamine (1 μM), atropine (1 μM), methysergide (1 μM), and captopril (0.1 μM) were also used in all carried out experiments to block respectively α-adrenergic, β-adrenergic, histaminic H1 muscarinic, and 5-HT2 receptors as well as to prevent peptide degradation. The tissues were bound to a force sensor suitable for isometric tension recording. They were stretched to a resting tension of 4 g, then stabilized for 60 minutes. During the stabilization, they were washed several times and the tension was adjusted. The experiments were carried out using semi-automatic systems of isolated organs with eight organ baths and multichannel data acquisition.
The tissues were exposed to a submaximal concentration of the reference agonist (angiotensin II at 0.003 μM) to verify the response and obtain a control contractile response.
After several washing operations and after having recovered the basal tone, the tissues were exposed to increasing concentrations of compounds according to the invention or the same agonist. The different concentrations were added cumulatively, each one was left in contact with the tissues until a stable response was reached and for a maximum of 30 minutes. If an agonist type response (contraction) was registered, the reference antagonist (Saralasine at 0.01 μM) was tested regarding the highest concentration of the compounds according to the invention to confirm the involvement of the AT1 receptors in the response.
After stabilization of the contraction induced by angiotensin II, increasing concentrations of compounds according to the invention or of the reference antagonist (Saralasine) were added cumulatively. Each concentration was left in contact with the tissues until a stable response was observed and for a maximum of 30 minutes.
The inhibiting effect of the compounds according to the invention on the contraction induced by the angiotensin 11 indicates antagonist activity on AT1 receptors.

[2] = test system: Wistar rats under repeated administrations of angiotensin II; assay: Arterial pressure of Wistar rats under repeated administration of angiotensin II; assay type: in vivo, rat; settings: angiotensin II boluses 50, 100 and 200 ng/kg; single intravenous dose 20 mpk
Method: This experimental procedure is intended to show the anti-hypertensive effects of the compounds according to the invention in Wistar rats in which hypertension is induced either by continuous intravenous administration of angiotensin II (example 21.1) or by repeated intravenous administration of angiotensin II (example 21.2). The animals were treated with the compounds according to the invention intravenously at increasing doses. To validate the study, the control animals were administered, in the same conditions, either the vehicle itself or a reference.
Wistar rats (males—200-250 g—5-6 weeks old—CERJ) were anesthetized for surgery using pentobarbital (50 mg/kg). A catheter was placed in the right jugular vein for angiotensin II administration. A catheter was placed in the left jugular vein the administration of the compounds according to the invention. Boluses of angiotensin II were performed at predetermined intervals by the experimenter using a manual syringe.
The arterial pressure of the animal was measured for a few minutes at basal conditions; then three successive intravenous administrations of angiotensin II (50, 100, and 200 ng/kg) were performed. At every bolus of angiotensin II, the average arterial pressure, expressed in mm of Hg, increased in a very temporary way. […]

| Compound | agonist activity (contraction) [1] | antagonist activity (inhibition of contractile response to angiotensin II) [1] | difference of arterial pressure: antagonist effect on angiotensin II [2] |
| --- | --- | --- | --- |
| CCCCC1=NC2(CCCC2)C(=O)N1Cc1ccc(-c2cccc(OC(C)(C)C(=O)O)c2)cc1 [Compound 1, 2-butyl-1-[(3′-((1-carboxy-1,1-dimethylmethyl)oxy)biphenyl-4-yl)methyl]-4-spirocyclopentyl-1H-imidazol-5(4H)-one] | do not induce contraction | inhibiting effect of the contractile response of the reference agonist | antagonist effect on angiotensin II |
| CCCCC1=NC2(CCCCC2)C(=O)N1Cc1ccc(-c2cccc(OC(C)(C)C(=O)O)c2)cc1 [Compound 21, 2-butyl-1-[(3′-((1-carboxy-1,1-dimethylmethyl)oxy)biphenyl-4-yl)methyl]-4-spirocyclohexyl-1H-imidazol-5(4H)-one] | do not induce contraction | inhibiting effect of the contractile response of the reference agonist |  |
